Data from patent publication US11278550B2, “Compositions and methods for the treatment of Prader-Willi syndrome” (Duke University, priority 2016, dated 2022).
Like-named read-outs stand apart in the source and are kept apart here.

Experiments:
human PWS fibroblasts [1] = experiment: Chromatin accessibility assay; assay type: cell-based; settings: vs vehicle-treated controls
Experimental: Chromatin accessibility assay was performed to investigate whether G9a inhibitors change open/close state of the imprinted cluster in the PWS-IC region according to Pai, C.C., et al. Nature communications 5, 4091 (2014) with slight modifications. Briefly, 3 days after drug treatment in human PWS fibroblasts, the cells were harvested and lysed with lysis buffer (0.5% NP-40, 15 mM Tris-HCl [pH 7.4], 0.15 mM Spermidine, 0.5 mM Spermine, 15 mM NaCl, 60 mM KCl, 1 mM DTT, 0.1 mM PMSF, 0.5M Sucrose, Protease and Phosphatase inhibitor cocktail (Roche)). The lysed cells were collected by centrifugation (3000 RPM/10 min/4° C.) and rinsed with digestive buffer (15 mM Tris-HCl [pH 7.4], 15 mM NaCl, 60 mM KCl, 4 mM MgCl2, 1 mM DTT, 0.1 mM PMSF, 0.35M Sucrose). After rinsing the cell pellets, MNase (NEB) was added to digest open status of chromatins, followed by genomic qPCR to determine changes in amount of SNRPN and other imprinted genes.

human PWS fibroblasts [2] = experiment: RT-PCR of 15q11-q13 genes in human PWS fibroblasts; assay type: cell-based; settings: for SNORD116 and its putative host transcript (116HG): 4 μM, 72 hours
Experimental: (§1) For testing long lasting drug effects, the 6 week-old m^S-EGFP/p^+ mice were treated daily by i.p. injection for seven consecutive days.
(§2) For reverse-transcription PCR (RT-PCR) and quantitative real time RT-PCR (qRT-PCR), first total RNA was extracted from the fibroblasts and/or collected tissues (liver and brain) using Direct-zol RNA Miniprep kit (Zymo Research cat. no. R2070). 2 μg of total RNA was directly used for single strand cDNA synthesis with Superscript III reverse transcriptase (Invitrogen cat. no. 18080-093) according to the manufacturer's protocols. The conditions for RT-PCR were 95° C./5 min, 35-40 cycles of 95° C./30 sec, 56-60° C./60 sec, 72° C./60 sec. Quantification of target gene expression was performed in a LightCycler480 instrument (Roche) using SsoAdvanced Universal SYBR green Supermix (Biorad cat. no. 172-5271) according to the manufacturer's instructions. See Table 4 for primer sequences and conditions used for experiments for RT-PCR, qRT-PCR, bisulfite genomic sequencing, ChIP-qPCR, and chromatin accessibility assay.
FIG. 4a represents a schematic of genomic organization at the human chromosome 15q11-q13 region imprinting center. Because imprinting of SNPRN is known to be ubiquitous, the G9a-inhibitor effect on its activation is expected to be representative of all tissues and cell types.

maternal Snrpn-EGFP MEFs = experiment: High content screening / concentration response of Snrpn-EGFP unsilencing; assay type: cell-based, mouse; settings: for activation of S-EGFP: mS-EGFP/p+ MEFs; for EC50: read-out: half-maximal effective concentration (EC50), Snrpn-EGFP unsilencing
Experimental: High content screenings of small molecules were performed as described in Huang, et al. Nature 481, 185-189 (2012). HCS comprises a 384-well high-content screen using primary mouse embryonic fibroblasts (MEFs) from m^S-EGFP/p^+, and searched for drug-like molecules that could unsilence the maternal S-EFGP allele. […] To perform the screen, primary MEFs were isolated from E12.5-14.5 embryos of m^S-EGFP/p^+ and cultured for 7 days in Dulbecco's modified Eagle's media supplemented with 10% fetal bovine serum, 100 Units/mL penicillin and 100 μg/mL streptomycin, at 37° C. and 5% CO2. One day before treatment with small molecules, 5,000 cells per well were plated onto 384-well plates. The cells were then treated with compounds (10 μM for 72 hours) from multiple small molecule libraries (FIG. 1f and FIG. 2). In total, 9,157 small molecules were screened in quadruplicate, normalizing values to vehicle-treatment (0.2% DMSO) (Table 1). The unsilencing of Snrpn-EGFP was determined three days after drug treatment. The immunofluorescence-processed fibroblasts were imaged for Hoechst and Alexa Fluor 488 fluorescence using a BD Pathway 855 high content imaging microscope. Antibody-enhanced Snrpn-EGPF fluorescence intensity was determined in drug-treated cells individually and normalized to cells treated with vehicle control. In order to identify potentially active compounds, an arbitrary cutoff of 125% was used where 100% indicates basal fluorescence in the vehicle-treated MEFs. Analysis was performed using Cell Profiler with custom macro and algorithms. Potential active drugs were defined as the increase in drug-mediated EGFP fluorescence consistently observed across quadruplicate wells and minimal or no cytotoxicity measured by Hoechst-stained nuclear structure (and the changes in total number of cells). After initial validation of all potential active drugs (e.g., to determine whether active compounds show inherent fluorescence, the wild-type fibroblasts were also treated), only effective hit compounds further validated in dose-response tests to determine relative efficacy (Emax) and potency (EC50). The dose-response results were analyzed by using Graphpad Prism (Graphpad Software). The calculated EC50 values (potencies) and estimated Emax (efficacy, Y-value top plateau) enabled comparative analyses of the relative potency and efficacy of the identified compounds.
Three days after drug treatment, the cells were fixed at 4% paraformaldehyde at room temperature for 10 min, followed by rinsing with 1× PBS. The cells were permeabilized with 0.5% Triton X-100 in 1× PBS at room temperature for 10 min, followed by blocking with 5% normal goat serum in 0.1% Triton X-100 in 1× PBS at room temperature for 30 minutes. Primary rabbit anti-GFP antibody (1:1000, Novus Biologicals cat. no. NB100-1770) was incubated at 4° C. overnight. The next day, the cells were rinsed with 1× PBS and incubated with goat anti-rabbit Alexa Fluor 488 (Invitrogen cat. no. A-11008) and Hoechst at room temperature. One hour after incubation, the cells were rinsed with 1× PBS and imaged for Hoechst and Alexa Fluor 488 fluorescence using a BD Pathway 855 high content imaging microscope.
It is not feasible to design a screen for noncoding RNA. Alternatively, SNRPN/Snprn is paternally expressed but maternally silenced in all human and mouse tissues. The allele-specific expression of human SNRPN is regulated by the PWS-IC, which also controls the expression of host transcripts for SnoRNAs, including the SNORD116 cluster between SNRPN and UBE3A. see Le Meur, E. et al., Dev. Biol. 286, 587-600 (2005). Thus, the Snrpn-EGFP fusion protein (hereafter S-EGFP) was used as a marker for high content screening (HCS). It was determined that small molecules that can unsilence S-EGFP would also be effective in reactivating the host transcript of SNORD116. […]

H3K9me2 = settings: cited from earlier work
human PWS fibroblasts [3] = experiment: Western blot of SNRPN protein in human PWS fibroblasts; assay type: cell-based; settings: 4 μM, 72 hr
[4] = in vivo; cited from earlier work
[5] = test system: adult Snrpn-EGFP mouse model; experiment: Long-lasting unsilencing in adult Snrpn-EGFP mice; assay type: in vivo; settings: 1, 4, and 12 weeks after the last dose; brain
Experimental: as §1, §2

several cell lines = settings: cited from earlier work

Row | Structure (SMILES) | chromatin accessibility across the imprinted domains incl. SNRPN and SNORD116 (human PWS fibroblasts [1]) | SNORD116 and its putative host transcript (116HG) (human PWS fibroblasts [2]) | activation of SNRPN and SNORD116 transcripts (human PWS fibroblasts [2]; 1-4 μM) | activation of S-EGFP (maternal Snrpn-EGFP MEFs) | EC50 (maternal Snrpn-EGFP MEFs; maternal Snrpn-EGFP MEFs, 72 hours) | reduction of the levels of H3K9me2 (H3K9me2; 250 nM, variety of cell lines) | SNRPN protein, of normal levels (human PWS fibroblasts [3]) | pharmacokinetic properties such as central nervous system penetration [4] | EC50 (maternal Snrpn-EGFP MEFs; Mus musculus, 72 h) | maternal expression of Snrpn-EGFP [5] | potency for H3K9me2 mark (H3K9me2; several cell lines) | cell toxicity (several cell lines)
1 | COc1cc2c(NC3CCN(C(C)C)CC3)nc(C3CCCCC3)nc2cc1OCCCN1CCCC1 [UNC0638] | more open and accessible | effective | effectively activated | active | 1600 nM | 60-80% | approximately 30% | – | – | – | – | –
2 | COc1cc2c(NC3CCN(C(C)C)CC3)nc(N3CCC(F)(F)CC3)nc2cc1OCCCN1CCCC1 [UNC0642] | – | effective | – | active | – | – | – | superior to UNC0638 | 2700 nM | long lasting effect | high potency | low cell toxicity
